Measurements published in PubChem BioAssay (NCI).
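Briefly, cells in 96-well plates were exposed to five compound concentrations for 48 h, and endpoints were estimated by linear interpolation. Definition used: TGI = concentration required for complete inhibition of growth.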

How the values were obtained:
Experiment in all cases: NCI tumour cell line growth inhibition, 48 h
[1] = tested on: HT29 colon
[2] = tested on: SW-620 colon
[3] = tested on: U251 CNS
[4] = tested on: NCI-H23 lung
[5] = tested on: HCC-2998 colon
[6] = tested on: A498 renal
[7] = tested on: MCF7 breast
[8] = tested on: NCI-H460 lung
[9] = tested on: HOP-62 NSCLC
[10] = tested on: UACC-257 melanoma
[11] = tested on: EKVX NSCLC
[12] = tested on: MDA-MB-435
[13] = tested on: SK-OV-3 ovarian
[14] = tested on: NCI/ADR-RES ovarian
[15] = tested on: DU-145 prostate
[16] = tested on: K-562 leukemia
[17] = tested on: NCI-H522 lung
[18] = tested on: RPMI-8226 leukemia
[19] = tested on: MDA-MB-231 breast
[20] = tested on: HOP-92 NSCLC
[21] = tested on: HS 578T breast
[22] = tested on: KM12 colon
[23] = tested on: IGROV1 ovarian
[24] = tested on: NCI-H226 lung
[25] = tested on: OVCAR-4 ovarian
[26] = tested on: CAKI-1 renal
[27] = tested on: UO-31 renal
[28] = tested on: SF-539 CNS
[29] = tested on: SK-MEL-28 melanoma
[30] = tested on: HL-60(TB) leukemia
[31] = tested on: SK-MEL-2 melanoma
[32] = tested on: RXF 393 renal
[33] = tested on: M14 melanoma
[34] = tested on: HCT-116 colon
[35] = tested on: LOX IMVI melanoma
[36] = tested on: HCT-15 colon
[37] = tested on: OVCAR-3 ovarian
[38] = tested on: MOLT-4 leukemia
[39] = tested on: T-47D breast
[40] = tested on: CCRF-CEM leukemia
[41] = tested on: OVCAR-5 ovarian
[42] = tested on: SR leukemia
[43] = tested on: TK-10 renal
[44] = tested on: OVCAR-8 ovarian
[45] = tested on: PC-3 prostate
[46] = tested on: 786-0 renal
[47] = tested on: SF-295 CNS
[48] = tested on: SK-MEL-5 melanoma
[49] = tested on: ACHN renal
[50] = tested on: MDA-N
[51] = tested on: SF-268 CNS
[52] = tested on: COLO 205 colon
[53] = tested on: SN12C renal
[54] = tested on: A549 NSCLC
[55] = tested on: SNB-19 CNS
[56] = tested on: MALME-3M melanoma
[57] = tested on: BT-549 breast
[58] = tested on: SNB-75 CNS
[59] = tested on: UACC-62 melanoma

## CC1=CC(=O)CC(C)(C)C1/C=C/C(C)=C/C=C/C(C)=C/C=C/C=C(C)/C=C/C=C(C)/C=C/C1=C(C)CC(O)CC1(C)C (configuration not stated)
[1]
  TGI: > 100 µM
[2]
  TGI: 33.2 µM
[3]
  TGI: > 100 µM
[4]
  TGI: > 100 µM
[5]
  TGI: 99.1 µM
[6]
  TGI: > 100 µM
[7]
  TGI: 45.3 µM
[8]
  TGI: > 100 µM
[9]
  TGI: > 100 µM
[10]
  TGI: > 100 µM
[11]
  TGI: > 100 µM
[12]
  TGI: 84.8 µM
[13]
  TGI: > 100 µM
[14]
  TGI: > 100 µM
[15]
  TGI: > 100 µM
[16]
  TGI: 27.1 µM
[17]
  TGI: 72.7 µM
[18]
  TGI: 27.9 µM
[19]
  TGI: > 100 µM
[20]
  TGI: 70.9 µM
[21]
  TGI: > 100 µM
[22]
  TGI: > 100 µM
[23]
  TGI: > 100 µM
[24]
  TGI: > 100 µM
[25]
  TGI: > 100 µM
[26]
  TGI: > 100 µM
[27]
  TGI: > 100 µM
[28]
  TGI: > 100 µM
[29]
  TGI: > 100 µM
[30]
  TGI: > 100 µM
[31]
  TGI: > 100 µM
[32]
  TGI: 52.7 µM
[33]
  TGI: > 100 µM
[34]
  TGI: 37.4 µM
[35]
  TGI: > 100 µM
[36]
  TGI: 73.4 µM
[37]
  TGI: 72.1 µM
[38]
  TGI: 1.6 µM
[39]
  TGI: > 100 µM
[40]
  TGI: > 100 µM
[41]
  TGI: > 100 µM
[42]
  TGI: 4.52 µM
[43]
  TGI: > 100 µM
[44]
  TGI: > 100 µM
[45]
  TGI: > 100 µM
[46]
  TGI: 72.5 µM
[47]
  TGI: > 100 µM
[48]
  TGI: > 100 µM
[49]
  TGI: 74.3 µM
[50]
  TGI: > 100 µM
[51]
  TGI: > 100 µM

## CC(=O)Nc1nnc(S(C)(=O)=O)s1
[1]
  TGI: > 100 µM
[2]
  TGI: > 100 µM
[3]
  TGI: > 100 µM
[52]
  TGI: > 100 µM
[4]
  TGI: > 100 µM
[6]
  TGI: > 100 µM
[7]
  TGI: > 100 µM
[8]
  TGI: > 100 µM
[9]
  TGI: > 100 µM
[10]
  TGI: > 100 µM
[11]
  TGI: > 100 µM
[12]
  TGI: > 100 µM
[53]
  TGI: > 100 µM
[14]
  TGI: > 100 µM
[15]
  TGI: > 100 µM
[54]
  TGI: > 100 µM
[16]
  TGI: > 100 µM
[18]
  TGI: > 100 µM
[20]
  TGI: > 100 µM
[22]
  TGI: > 100 µM
[24]
  TGI: > 100 µM
[27]
  TGI: > 100 µM
[28]
  TGI: > 100 µM
[29]
  TGI: > 100 µM
[30]
  TGI: > 100 µM
[32]
  TGI: > 100 µM
[55]
  TGI: > 100 µM
[33]
  TGI: > 100 µM
[56]
  TGI: > 100 µM
[57]
  TGI: > 100 µM
[34]
  TGI: > 100 µM
[36]
  TGI: > 100 µM
[37]
  TGI: > 100 µM
[38]
  TGI: > 100 µM
[40]
  TGI: > 100 µM
[41]
  TGI: > 100 µM
[42]
  TGI: > 100 µM
[43]
  TGI: > 100 µM
[44]
  TGI: > 100 µM
[45]
  TGI: > 100 µM
[46]
  TGI: > 100 µM
[47]
  TGI: > 100 µM
[49]
  TGI: > 100 µM
[50]
  TGI: > 100 µM
[51]
  TGI: > 100 µM

## COc1cccc(N(CN2C(=O)CCC2C(=O)O)C(C)=O)c1 (configuration not stated)
[1]
  TGI: > 100 µM
[2]
  TGI: > 100 µM
[3]
  TGI: > 100 µM
[52]
  TGI: > 100 µM
[4]
  TGI: > 100 µM
[5]
  TGI: > 100 µM
[6]
  TGI: > 100 µM
[7]
  TGI: > 100 µM
[8]
  TGI: > 100 µM
[9]
  TGI: > 100 µM
[10]
  TGI: > 100 µM
[11]
  TGI: > 100 µM
[12]
  TGI: > 100 µM
[13]
  TGI: > 100 µM
[53]
  TGI: > 100 µM
[14]
  TGI: > 100 µM
[15]
  TGI: > 100 µM
[54]
  TGI: > 100 µM
[16]
  TGI: > 100 µM
[17]
  TGI: > 100 µM
[18]
  TGI: > 100 µM
[19]
  TGI: > 100 µM
[20]
  TGI: > 100 µM
[21]
  TGI: > 100 µM
[22]
  TGI: > 100 µM
[23]
  TGI: > 100 µM
[24]
  TGI: > 100 µM
[25]
  TGI: > 100 µM
[26]
  TGI: > 100 µM
[27]
  TGI: > 100 µM
[28]
  TGI: > 100 µM
[29]
  TGI: > 100 µM
[30]
  TGI: > 100 µM
[31]
  TGI: > 100 µM
[32]
  TGI: > 100 µM
[55]
  TGI: > 100 µM
[33]
  TGI: > 100 µM
[56]
  TGI: > 100 µM
[34]
  TGI: > 100 µM
[35]
  TGI: > 100 µM
[36]
  TGI: > 100 µM
[37]
  TGI: > 100 µM
[38]
  TGI: > 100 µM
[39]
  TGI: > 100 µM
[58]
  TGI: > 100 µM
[59]
  TGI: > 100 µM
[41]
  TGI: > 100 µM
[42]
  TGI: > 100 µM
[43]
  TGI: > 100 µM
[44]
  TGI: > 100 µM
[45]
  TGI: > 100 µM
[46]
  TGI: > 100 µM
[47]
  TGI: > 100 µM
[48]
  TGI: > 100 µM
[49]
  TGI: > 100 µM
[50]
  TGI: > 100 µM
[51]
  TGI: > 100 µM

## COP(=O)(OC)C(O)CC(C)C (configuration not stated)
[1]
  TGI: > 100 µM
[2]
  TGI: > 100 µM
[3]
  TGI: > 100 µM
[52]
  TGI: > 100 µM
[5]
  TGI: > 100 µM
[6]
  TGI: > 100 µM
[7]
  TGI: > 100 µM
[8]
  TGI: > 100 µM
[9]
  TGI: > 100 µM
[10]
  TGI: > 100 µM
[11]
  TGI: > 100 µM
[12]
  TGI: > 100 µM
[13]
  TGI: > 100 µM
[53]
  TGI: > 100 µM
[15]
  TGI: > 100 µM
[54]
  TGI: > 100 µM
[16]
  TGI: > 100 µM
[18]
  TGI: > 100 µM
[19]
  TGI: > 100 µM
[22]
  TGI: > 100 µM
[24]
  TGI: > 100 µM
[25]
  TGI: > 100 µM
[26]
  TGI: > 100 µM
[27]
  TGI: > 100 µM
[29]
  TGI: > 100 µM
[30]
  TGI: > 100 µM
[31]
  TGI: > 100 µM
[32]
  TGI: > 100 µM
[55]
  TGI: > 100 µM
[33]
  TGI: > 100 µM
[34]
  TGI: > 100 µM
[37]
  TGI: > 100 µM
[38]
  TGI: > 100 µM
[39]
  TGI: > 100 µM
[58]
  TGI: > 100 µM
[59]
  TGI: > 100 µM
[41]
  TGI: > 100 µM
[43]
  TGI: > 100 µM
[45]
  TGI: > 100 µM
[46]
  TGI: > 100 µM
[47]
  TGI: > 100 µM
[48]
  TGI: > 100 µM
[49]
  TGI: > 100 µM
[50]
  TGI: > 100 µM
